In US9738649B2 (priority 2006, dated 2017):
Counter-ions that a name gives are not always drawn.

Molecular target: rat TRPV1 (Rattus norvegicus (Rat), UniProt O35433)
Conditions: read-out: Rat IC50
Description: Biological Testing: Functional Assay: Block of Capsaicin-Induced Ca^2+ Influx A. Human Assay
Cells were passaged frequently, every 3-5 days, to avoid overgrowth, depletion of essential medium components, or acidic medium exposure. Cells were passaged using a brief wash in 0.05% trypsin with 1 mM EDTA, followed by dissociation in divalent-free phosphate-buffered saline (Hyclone #SH30028.02). […] The assay buffer was composed of 130 mM NaCl, 2 mM KCl, 2 mM MgCl2, 10 mM HEPES, 5 mM glucose, and either 2 mM or 20 μM CaCl2. On the day of the experiment, the culture medium was replaced with 2 mM calcium assay buffer using an automated plate washer (ELx405; Biotek, VT). […] After loading the cells, the dye solution was replaced with 50 μL/well of 20 μM calcium assay buffer using the ELx405 plate washer. Test compounds (50 μL/well) were added to the plate and incubated for 30 min. […] The IC50 values were determined. […] The contents of the wells were mixed 3 times (40 μL mix volume) immediately after the additions were made. Concentration dependence of block was determined by exposing each well of cells in duplicate rows of a 96 well plate to a serial dilution of test compound. The concentration series usually started at 10 μM with a three-fold serial decrement in concentration. The magnitude of the capsaicin response was determined by measuring the change in fluo3 fluorescence before and 100 seconds after the addition of the agonist. Data were analyzed using a non-linear regression program (Origin; OriginLab, MA). IC50 values shown are the average (mean) of the results obtained.
The assay was performed as described above, using HEK293 cells transfected with rat TRPV1 (rTRPV1/HEK293). […] IC50 values shown are the average (mean) of the results obtained.

rat TRPV1, sequence (O35433 whole entry): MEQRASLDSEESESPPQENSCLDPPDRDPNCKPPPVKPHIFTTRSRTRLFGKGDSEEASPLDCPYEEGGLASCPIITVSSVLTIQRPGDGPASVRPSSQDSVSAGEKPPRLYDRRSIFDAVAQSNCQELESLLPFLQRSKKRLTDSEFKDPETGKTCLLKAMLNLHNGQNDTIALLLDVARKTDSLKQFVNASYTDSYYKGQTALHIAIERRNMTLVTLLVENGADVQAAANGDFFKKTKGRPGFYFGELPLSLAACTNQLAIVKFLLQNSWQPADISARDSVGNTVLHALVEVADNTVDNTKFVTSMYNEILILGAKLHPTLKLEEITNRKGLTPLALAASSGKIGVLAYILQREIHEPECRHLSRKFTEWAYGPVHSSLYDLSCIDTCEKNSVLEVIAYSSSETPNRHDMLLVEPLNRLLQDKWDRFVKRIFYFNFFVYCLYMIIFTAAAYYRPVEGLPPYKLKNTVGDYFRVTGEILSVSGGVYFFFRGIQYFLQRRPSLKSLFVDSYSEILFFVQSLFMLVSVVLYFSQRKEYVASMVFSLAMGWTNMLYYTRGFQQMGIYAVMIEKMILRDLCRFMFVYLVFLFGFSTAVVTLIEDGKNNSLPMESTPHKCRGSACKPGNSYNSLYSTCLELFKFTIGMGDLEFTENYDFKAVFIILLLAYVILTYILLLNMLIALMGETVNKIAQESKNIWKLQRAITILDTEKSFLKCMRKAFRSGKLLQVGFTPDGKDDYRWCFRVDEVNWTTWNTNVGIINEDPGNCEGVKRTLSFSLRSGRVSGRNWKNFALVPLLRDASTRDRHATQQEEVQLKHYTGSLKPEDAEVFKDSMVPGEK

SMILES | IC50 [µM]
CN(C)c1nc2c(c(Nc3ccc(C(F)(F)F)nc3)n1)CCN(c1ncccc1C(F)(F)F)CC2 [Example 43B, N^2,N^2-Dimethyl-N^4-(6-trifluoromethyl-pyridin-3-yl)-7-(3-trifluoro-methyl-pyridin-2-yl)-6,7,8,9-tetrahydro-5H-pyrimido[4,5-d]azepine-2,4-diamine trifluoroacetic acid salt] | 0.39
O=C(O)C1CCN(c2nc3c(c(Nc4ccc(C(F)(F)F)cc4)n2)CCN(c2ncccc2C(F)(F)F)CC3)CC1 [Example 57B, 1-[4-(4-Trifluoromethyl-phenylamino)-7-(3-trifluoromethyl-pyridin-2-yl)-6,7,8,9-tetrahydro-5H-pyrimido[4,5-d]azepin-2-yl]-piperidine-4-carboxylic acid trifluoroacetic acid salt] | 5.5
FC(F)(F)c1ccc(Nc2nc(NCCN3CCCCC3)nc3c2CCN(c2ncccc2C(F)(F)F)CC3)cc1 [Example 58B, N^2-(2-Piperidin-1-yl-ethyl)-N^4-(4-trifluoromethyl-phenyl)-7-(3-trifluoro-methyl-pyridin-2-yl)-6,7,8,9-tetrahydro-5H-pyrimido[4,5-d]azepine-2,4-diamine trifluoroacetic acid salt] | 1.5
FC(F)(F)c1ccc(Nc2nc(NC3CCOCC3)nc3c2CCN(c2ncccc2C(F)(F)F)CC3)cc1 [Example 61B, N^2-(Tetrahydro-pyran-4-yl)-N^4-(4-trifluoromethyl-phenyl)-7-(3-trifluoro-methyl-pyridin-2-yl)-6,7,8,9-tetrahydro-5H-pyrimido[4,5-d]azepine-2,4-diamine trifluoroacetic acid salt] | 0.23
CN(C)c1nc2c(c(NCc3ccc(Cl)c(Cl)c3)n1)CCN(c1ncccc1C(F)(F)F)CC2 [Example 73B, N^4-(3,4-Dichloro-benzyl)-N^2,N^2-dimethyl-7-(3-trifluoromethyl-pyridin-2-yl)-6,7,8,9-tetrahydro-5H-pyrimido[4,5-d]azepine-2,4-diamine trifluoroacetic acid salt] | 6.7
